Experimental data reported in ChEMBL document CHEMBL3046242, “Synthesis and evaluation of thiopyrano[3,4-c]quinoline-9-carboxamide derivatives as inhibitors of poly(ADP-ribose) polymerase-1 (PARP-1)” (Med Chem Res, 2012).

What was measured:
[1] = molecular target: T1, Poly [ADP-ribose] polymerase 1 (Homo sapiens, UniProt P09874); test: Inhibition of PARP-1 (unknown origin) assessed as inhibition of biotinylated poly(ADP-ribose) onto histone proteins after 30 min by colorimetry
[2] = molecular target: T1, Poly [ADP-ribose] polymerase 1; test: Inhibition of PARP-1 (unknown origin) expressed in CHO-K1 cells assessed as depletion of NAD(P)H after 2 hr by CCK-8 assay; assay type: cell-based
[3] = Half life in Homo sapiens (human) liver microsomes at 1 uM by LC/MS/MS analysis; assay type: ADME
[4] = Clearance in Rattus norvegicus Sprague-Dawley (rat) at 5 mg/kg, iv; assay type: ADME, organism-based; set-up: dose 5 mg/kg, route intravenous; conditions: in vivo
[5] = Solubility of the compound in water; assay type: physicochemical
[6] = Half life in Rattus norvegicus Sprague-Dawley (rat) at 5 mg/kg, iv; assay type: ADME, organism-based; set-up: dose 5 mg/kg, route intravenous; conditions: in vivo
[7] = AUC (0 to infinity) in Rattus norvegicus Sprague-Dawley (rat) at 5 mg/kg, iv; assay type: ADME, organism-based; set-up: time infinity, dose 5 mg/kg, route intravenous; conditions: plasma

T1 sequence (P09874 whole entry): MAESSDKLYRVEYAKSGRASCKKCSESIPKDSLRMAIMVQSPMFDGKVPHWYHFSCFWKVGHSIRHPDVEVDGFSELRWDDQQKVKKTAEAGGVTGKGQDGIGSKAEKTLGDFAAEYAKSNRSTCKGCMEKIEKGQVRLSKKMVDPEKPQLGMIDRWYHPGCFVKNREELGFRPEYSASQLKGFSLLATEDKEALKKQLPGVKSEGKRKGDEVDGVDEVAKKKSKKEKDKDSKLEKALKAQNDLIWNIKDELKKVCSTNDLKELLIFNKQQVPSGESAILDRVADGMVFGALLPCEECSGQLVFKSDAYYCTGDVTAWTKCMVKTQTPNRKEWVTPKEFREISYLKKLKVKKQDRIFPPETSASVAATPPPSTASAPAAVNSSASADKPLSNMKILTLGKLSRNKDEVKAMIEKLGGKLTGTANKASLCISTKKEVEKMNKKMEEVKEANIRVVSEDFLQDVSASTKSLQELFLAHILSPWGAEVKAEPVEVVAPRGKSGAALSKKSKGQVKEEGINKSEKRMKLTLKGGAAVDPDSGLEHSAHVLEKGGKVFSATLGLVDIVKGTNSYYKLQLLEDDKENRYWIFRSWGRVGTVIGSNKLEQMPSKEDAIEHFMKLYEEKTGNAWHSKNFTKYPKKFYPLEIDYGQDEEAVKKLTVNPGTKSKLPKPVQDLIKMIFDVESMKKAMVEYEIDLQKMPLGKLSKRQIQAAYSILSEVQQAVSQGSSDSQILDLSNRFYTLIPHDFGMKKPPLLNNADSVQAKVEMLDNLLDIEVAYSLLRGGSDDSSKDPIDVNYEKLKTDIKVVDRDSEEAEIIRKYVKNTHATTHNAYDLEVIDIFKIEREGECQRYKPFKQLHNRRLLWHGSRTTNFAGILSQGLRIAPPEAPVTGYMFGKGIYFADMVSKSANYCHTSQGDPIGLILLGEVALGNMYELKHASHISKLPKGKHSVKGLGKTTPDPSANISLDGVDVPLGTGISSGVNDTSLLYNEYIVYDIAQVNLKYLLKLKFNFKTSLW

Structure (SMILES) | IC50 [1] | ED50 [2] | further results
O=C(c1ccc2[nH]c(=O)c3c(c2c1)CCSC3)N1CCN(C2CCCCCC2)CC1 | 67 nM | 0.5 µM | –
O=C(c1ccc2[nH]c(=O)c3c(c2c1)CCSC3)N1CCNCC1 | 8 nM | > 30 µM | –
O=C(O)c1ccc2[nH]c(=O)c3c(c2c1)CCSC3 | 78 nM | – | –
O=C(c1ccc2[nH]c(=O)c3c(c2c1)CCSC3)N1CCN(CCCC(F)(F)F)CC1 | 134 nM | 2.41 µM | –
CCN1CCN(C(=O)c2ccc3[nH]c(=O)c4c(c3c2)CCSC4)CC1 | 47 nM | 2 µM | –
O=C(NCCN1CCN(c2ccccc2)CC1)c1ccc2[nH]c(=O)c3c(c2c1)CCSC3 | 166 nM | 4.02 µM | –
CCCCCN1CCN(C(=O)c2ccc3[nH]c(=O)c4c(c3c2)CCSC4)CC1 | 79 nM | 0.61 µM | –
O=C(c1ccc2[nH]c(=O)c3c(c2c1)CCSC3)N1CCCCC1 | 175 nM | 1.26 µM | –
NCCCNC(=O)c1ccc2[nH]c(=O)c3c(c2c1)CCSC3 | 30 nM | > 30 µM | –
CCOC(=O)c1ccc2[nH]c(=O)c3c(c2c1)CCSC3 | 536 nM | – | –
NCCNC(=O)c1ccc2[nH]c(=O)c3c(c2c1)CCSC3 | 17 nM | > 30 µM | –
O=C(c1ccc2[nH]c(=O)c3c(c2c1)CCSC3)N1CCN(CCc2ccccc2)CC1 | 19 nM | 2.19 µM | –
O=C(NCCN1CCN(c2ccncc2)CC1)c1ccc2[nH]c(=O)c3c(c2c1)CCSC3 | 44 nM | > 30 µM | –
CCCCN1CCN(C(=O)c2ccc3[nH]c(=O)c4c(c3c2)CCSC4)CC1 | 42 nM | 0.77 µM | –
O=C(c1ccc2[nH]c(=O)c3c(c2c1)CCSC3)N1CCN(c2ccncc2)CC1 | 20 nM | > 30 µM | –
CCCC(C)N1CCN(C(=O)c2ccc3[nH]c(=O)c4c(c3c2)CCSC4)CC1 (configuration not stated) | 40 nM | 0.46 µM | –
O=C(c1ccc2[nH]c(=O)c3c(c2c1)CCSC3)N1CCN(C2CCCCC2)CC1 | 68 nM | 0.32 µM | –
O=C(NCCN1CCOCC1)c1ccc2[nH]c(=O)c3c(c2c1)CCSC3 | 60 nM | > 30 µM | –
CCCN1CCN(C(=O)c2ccc3[nH]c(=O)c4c(c3c2)CCSC4)CC1 | 45 nM | 0.54 µM | half-life at 1 µM [3]: 41.7 min; clearance [4]: 63.3 mL/min/kg; solubility [5]: > 1000 µg/mL; half-life [6]: 84 min; AUC(0-inf) [7]: 1300 ng·h/mL
O=C(c1ccc2[nH]c(=O)c3c(c2c1)CCSC3)N1CCN(C2CCCC2)CC1 | 47 nM | 0.55 µM | half-life at 1 µM [3]: 14.5 min
O=C(c1ccc2[nH]c(=O)c3c(c2c1)CCSC3)N1CCN(c2ccccc2)CC1 | 234 nM | 1.29 µM | –
CC(C)CCN1CCN(C(=O)c2ccc3[nH]c(=O)c4c(c3c2)CCSC4)CC1 | 65 nM | 0.84 µM | half-life at 1 µM [3]: 15.9 min
O=C(NCCN1CCNCC1)c1ccc2[nH]c(=O)c3c(c2c1)CCSC3 | 36 nM | > 30 µM | –
CN1CCN(C(=O)c2ccc3[nH]c(=O)c4c(c3c2)CCSC4)CC1 | 188 nM | 2.53 µM | –
O=C(c1ccc2[nH]c(=O)c3c(c2c1)CCSC3)N1CCN(Cc2ccccc2)CC1 | 187 nM | 2.51 µM | –
NCCCCNC(=O)c1ccc2[nH]c(=O)c3c(c2c1)CCSC3 | 27 nM | > 30 µM | –
O=C(NCCN1CCCCC1)c1ccc2[nH]c(=O)c3c(c2c1)CCSC3 | 58 nM | 2.81 µM | –
CCCCCCN1CCN(C(=O)c2ccc3[nH]c(=O)c4c(c3c2)CCSC4)CC1 | 94 nM | 2.91 µM | –
O=C1CC2(CCCC2)CC(=O)N1CCCCN1CCN(c2ncccn2)CC1 [BUSPIRONE] | – | – | half-life at 1 µM [3]: 4 min
